Patent publication US20220372014A1, “NEUROPROTECTIVE COMPOUNDS AND METHODS OF USE THEREOF” (The Johns Hopkins University, priority 2019, published 2022)

Experiments:
PAAN/MIF WT or variants [1] = molecular target: T1, PAAN/MIF WT or variants (Homo sapiens, UniProt P14174); test: Biolayer interferometry (ForteBio Octet) binding assay; conditions: PAAN/MIF WT
T1 construct: made in house; host or cells: Escherichia coli
From the text: (§1) Purification of PAAN/MIF recombinant proteins. Human PAAN/MIF (NM_002415) cDNA and its variants were subcloned into pGEX-6β-1 vector (GE Healthcare) and mutants were generated using a QuikChange site-directed mutagenesis kit (Stratagene). The sequences were confirmed by automated DNA sequencing. The protein was expressed and purified from Escherichia coli by glutathione sepharose (GE Healthcare). The GST tag was subsequently proteolytically removed. GST protein was used as a negative control in the nuclease assay and PAAN/MIF proteins purified by FPLC using Superdex 200 10/300GL column (GE Healthcare, Life Sciences) were also used in the nuclease assays.
(§2) Biolayer interferometry assay. The dose-dependent binding of compound 121 for PAAN/MIF WT or PAAN/MIF variants were determined by a biolayer interferometry assay using Octet RED96 (ForteBio). See Guo et al. (2018) Nat. Chem. 11:254-63. All the proteins used in this assay were tagged with GST. Anti-GST biosensor tips (ForteBio) were used to immobilize the GST proteins after prewetting with 1X kinetic buffer (ForteBio). The equilibrated GST biosensors were loaded with PAAN/MIF WT or variants (25 μg/ml). Background binding controls were measured by sensors that were incubated in buffer without proteins. All assays were performed by a standard protocol in 96-well black plates (Greiner Bio) with a total volume of 200 μl per well. All the data were analyzed by Octet data analysis software.

[2] = tested on: α-syn PFF injected WT mice; test: Intrastriatal α-syn PFF mouse model (TH/Nissl stereology, HPLC of dopamine and DOPAC, pole test, grip strength test, pulsed-field gel, weight)
pS6 kinase activity = test: Immunoblot of pS6K, pS6 and p4E-BP1 levels in SH-SY5Y cells; type: cell-based; conditions: 0.5 or 1 μM, 3 h
From the text: FIGS. 14A-14G show the characterization of compound 121. […] Bars represent means±s.e.m. ***P<0.0005, two-way ANOVA followed by Tukey's post hoc test (n=4). […] Bars represent mean±s.e.m. ***P<0.0005, two-way ANOVA followed by Tukey's post hoc test (n=4). […] Bars represent means±s.e.m. **P<0.005, ***P<0.0005, one-way ANOVA followed by Tukey's post hoc test (n=3). […] Bar represent mean±s.e.m. ***P<0.0005, one-way ANOVA followed by Tukey's post hoc test (n=3). […] Quantification of inhibition of PARP-1 activity by compound 56, compound 121 and ABT-888 is shown. Graphs represent mean±s.e.m. ***P<0.0005, two-way ANOVA followed by Tukey's post hoc test (n=3). FIGS. 14F and 14G show Alamar blue cell viability assay from SH-SY5Y cells pre-incubated with either compound 56 or 121 in response to (14F) 0.5 μM staurosporine (STS) or (14G) from HT 22 cells incubated with 1 ng/ml of TNF-α with 50 μM z-VAD. Bars represent mean±s.e.m. ***P<0.0005, two-way ANOVA followed by Tukey's post hoc test (n=5).
Tissue lysate preparation and western blot analysis. […] Protein concentrations were determined using the BCA assay (Pierce) and samples were separated using SDS polyacrylamide gels and transferred onto nitrocellulose membranes. […]

PAAN/MIF = test: In vitro PAAN/MIF nuclease assay (PS30 or RF substrate, PAGE gel, noncleaved substrate DNA); type: biochemical, human
Experimental: Nuclease assay. Purified PAAN/MIF protein (4 μM) was incubated with compounds (10 μM) in the nuclease buffer [10 mM Tris-C1 (pH 7.0) and 10 mM MgCl2] for 20 m on ice. Then samples were added with 1 μM of PAAN/MIF substrate (PS30 or RF) and incubated for 1 h at 37° C. The reaction was terminated with loading buffer containing 10 mM EDTA and separated on 15% TBE-urea polyacrylamide (PAGE) gel or 20% TBE PAGE gel.
as §1

PAAN/MIF WT or variants [3] = test: Biolayer interferometry (ForteBio Octet) binding assay; design: species or system human
From the text: as §1, §2

DNA-MIF/PAAN complex = molecular target: T2, DNA-MIF/PAAN complex (Homo sapiens, UniProt P14174); test: Electrophoretic mobility shift assay (EMSA) of PAAN/MIF with biotin-labeled DNA substrate (PS30); type: binding; conditions: 1-100 μM
T2 construct: GST (N, cleaved yes); made in house; host or cells: Escherichia coli
Experimental: Electrophoretic mobility shift assay (EMSA). EMSA assays were performed using the Light-Shift Chemiluminescent EMSA kit (Thermo Scientific) following the manufactures instruction. Recombinant PAAN/MIF protein (2 μM) was incubated with 1-100 μM PAANIB-1 as indicated in the binding buffer containing 10 mM MgCl2 for 10 min and further incubated with biotin-labeled DNA substrates (10 nM) for 30 min on ice. The mixture were separated on 6% retardation polyacrylamide and transferred to a Nylon membrane. Immunoblot analysis was performed to detect the biotin-labeled DNA using the Chemiluminescent Nucleic Acid Detection Module (Thermo Scientific).

calcineurin = test: Calcineurin cellular activity assay in SH-SY5Y cells; type: cell-based; conditions: 1 μM, 6 h
Experimental: Calcineurin activity assay. Calcineurin activity was measured using a calcineurin cellular activity assay (Enzo Life Sciences) according to manufacturer's protocols. See Sangadala et al. (2019) Int. J. Mol. Sci. 20:1900. SH-SY5Y cells treated with FK506 or compound 121 were placed in a desalting column to remove excess phosphates and nucleotides. Total phosphate activity was determined in the samples by incubating with a calcineurin-specific substrate supplied in the manufacturer and measured by monitoring absorbance at 620 nm. Calcineurin activity was calculated as the difference between total phosphatase activity minus the phosphatase activity in the presence of 10 mM EGTA that blocks calcineurin activity.

[4] = both doses, 5 and 15 mg/kg/day oral, 5 months

T2 sequence (P14174 whole entry, one chain of several): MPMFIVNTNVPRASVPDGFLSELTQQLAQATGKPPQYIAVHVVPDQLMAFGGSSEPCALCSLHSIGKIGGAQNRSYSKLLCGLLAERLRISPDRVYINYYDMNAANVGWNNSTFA

Structure (SMILES): COc1ccc(CC[C@H]2OC(=O)[C@@H]3CCCCN3C(=O)C(=O)C(C)(C)COC(=O)C=CCCN(C)C(=O)[C@@H]3CCCN3C(=O)[C@H](CO)N(C)C(=O)C(c3ccccc3)NC(=O)[C@H](C)N(C)C(=O)COc3cccc2c3)cc1OC (stereo partly shown) [compound 97]
- binding to PAAN/MIF (PAAN/MIF WT or variants [1]): lack of binding

Structure (SMILES): COc1ccc(CC[C@H]2OC(=O)[C@@H]3CCCCN3C(=O)C(=O)C(C)(C)COC(=O)C=CCCN(C)C(=O)[C@@H]3CCCN3C(=O)[C@H](COC(C)(C)C)N(C)C(=O)C(c3ccccc3)NC(=O)[C@H](C)N(C)C(=O)COc3cc(F)cc2c3)cc1OC (mixture of isomers) [compound 121]
- tolerability (toxicity, weight) ([2]; 5 and 15 mg/kg/day oral, 5 months): no overt toxicity or weight loss
- behavioral deficits (pole test, grip strength test) [2, 4]: prevents
- loss of DA neurons (TH and Nissl stereology, TH immunoblot, HPLC of DA and DOPAC) [2, 4]: prevents the loss of DA neurons
- α-syn PFF-induced large scale genomic DNA cleavage in vivo ([2]; pulse gel electrophoresis): significantly attenuated
- rapamycin sensitive pS6 kinase activity (pS6 kinase activity): failed to inhibit
- nuclease activity of MIF 66-67A or MIF 97-99A mutants (PAAN/MIF; mutants K66A and I67A, N97A, Y98A and Y99A): remained sensitive to inhibition
- nuclease activity of PAAN/MIF 60-63A and PAAN/MIF N72A mutants (PAAN/MIF; mutants S60A, L61A, H62A and S63A (MIF 60-63A), N72A): became resistant
- Kd, binding affinity of PAAN/MIF (PAAN/MIF WT or variants [1]): 1.56 µM
- direct binding of PAAN/MIF WT and Y99A mutant (PAAN/MIF WT or variants [3]): exhibited binding
- direct binding of mutants L61A, N72A and 60-63A (PAAN/MIF WT or variants [3]): remarkably decreased
- interaction of PAAN/MIF with its substrate (DNA-MIF/PAAN complex): does not disrupt
- FK506 sensitive calcineurin activity (calcineurin): failed to inhibit
